Key:
[1] = test system: L. donovani promastigotes (strain 1S/Cl2D); test: Promastigote assay, CellTiter-Glo (Assay Conditions F); assay type: cell-based; settings: Leishmania donovani; read-out: Extracellular promastigote EC50
Method: (§1) Assay Conditions F: Leishmania promastigotes (L. major: strain LV39; L. donovani, strain 1S/Cl2D) were maintained as previously described in PloS Negl Trop Dis (2015) 9(3):e0003588 and Pathogens (2021) 10(5):593) at 28° C. in M199 media supplemented with glutamine, adenosine, folic acid, hemin, HEPES, 10% Fetal Bovine Serum (Sigma-Aldrich, cat. no. F2442) and 1% Penicillin-Streptomycin (Gibco, cat. no. 15140122). For the promastigote assay, we followed the method previously described in PloS Negl Trop Dis (2011) 5(7):e1253. Briefly, promastigotes were incubated with the compounds for 72 h at 27° C., then lysed by adding 50 μL of CellTiter-Glo (Promega) and placed on an orbital shaker for 5 min at room temperature. After lysis, the resulting ATP-bioluminescence was measured using the Analyst HT plate reader (Molecular Devices).

[2] = test system: L. major promastigotes (strain LV39); test: as above; assay type: cell-based; settings: Leishmania major; read-out: Extracellular promastigote EC50
Method: as §1

[3] = test system: L. donovani intracellular amastigotes infecting THP-1 cells; test: High content intracellular amastigote assay in THP-1 cells (Assay Conditions B; CDIPD screen); assay type: cell-based, Leishmania donovani; settings: Leishmania donovani; THP-1 host cells
Method: (§2) Assay Conditions B: THP-1 cells (human acute monocytic leukemia cell line—ATCC TIB202) were grown in RPMI supplemented with 10% Fetal Bovine Serum (FBS) and 50 μM 2-mercaptoethanol at 37° C. in 5% CO2. THP-1 were seeded in microwell plates at 5×10^5 cells/mL density and treated with 0.1 μM phorbol myristate acetate (PMA, Sigma) at 37° C. for 48 h for differentiation into adherent, non-dividing macrophages. After activation by PMA, cells were washed and incubated with complete RPMI medium containing stationary phase Leishmania promastigotes (L. major: strain LV39; L. donovani, strain 1S/Cl2D) at a 1:15 parasite-cell ratio. Compounds were added and incubated at 37° C. for 72 h. Cells were then washed with phosphate-buffered saline (PBS), fixed for 30 minutes with 4% formaldehyde, rinsed again with PBS, stained for 2 h with 4′,6′-diamidino-2-phenylindole (DAPI 300 nM) and finally washed with PBS. In a collaborative effort to identify new antileishmanial chemotypes with minimal host cell cytotoxicity, compounds from the Boston University Center for Molecular Discovery (BUCMD) screening collection were assessed in a phenotypic, high content primary screen at the University of California's Center for Discovery and Innovation in Parasitic Diseases (CDIPD) for the ability to inhibit growth of L. donovani intracellular amastigotes infecting THP-1 cells. […] Dose-response testing in L. donovani (both intracellular amastigotes and promastigotes) confirmed concentration-dependent growth inhibition of both morphologies of the parasite at low micromolar EC50 values for both compounds (Table 1).

[4] = test system: HepG2 cells; test: HepG2 cytotoxicity; assay type: cell-based; settings: Homo sapiens; toxicity against HepG2 cells
[5] = test system: L. donovani intracellular amastigotes in B10R cells; test: UCSD L. donovani infection assay (Assay Conditions D); assay type: cell-based; settings: Leishmania donovani
Method in brief: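 Compounds, either single-point at 10 μM or 10-point 2-fold series (3 technical, 2 biological replicates), were incubated 72 h at 37° C. with B10R host cells co-seeded with day-7 stationary L. donovani promastigotes (20:1). DAPI-stained nuclei imaging yielded intracellular parasite EC50 and host-cell CC50.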

[6] = test system: L. major (strain LV39) intracellular amastigotes infecting THP-1 cells; test: High content intracellular amastigote assay in THP-1 cells (Assay Conditions B); assay type: cell-based, Leishmania major; settings: Leishmania major; THP-1 host cells
Method: as §2

`COc1ccc(N2C(=O)c3[nH]nc(CC(C)C)c3C2c2ccc(F)cc2)cc1` (racemic) [Compound 1, 4-(4-fluorophenyl)-3-isobutyl-5-(4-methoxyphenyl)-4,5-dihydropyrrolo[3,4-c]pyrazol-6(1H)-one] was tested, and the EC50 [1] was 2000 nM, the EC50 [2] was 4400 nM and the EC50 [3] was 2500 nM. For the same compound, the EC50 [4] was 63100 nM, the IC50 [5] was 800 nM and the EC50 ([5]; average of two biological replicates, read-out: L. donovani EC50 (UCSD assay)) was 820 nM. It also gave an EC50 [6] of 1300 nM.

For `COc1ccc(N2C(=O)c3[nH]nc(CC(C)C)c3C2c2ccccc2)cc1` (stereo not shown) [Compound 2], the EC50 [1] was 2400 nM, the EC50 [2] was 4200 nM and the EC50 [3] was 3700 nM. The EC50 [4] was 79400 nM, the IC50 [5] was 1100 nM and the EC50 [6] was 1700 nM.
